{"source": "patent US7888378B2", "about": "“Thiadiazole compounds and uses thereof” (Mallinckrodt Inc., priority 2006, dated 2011)", "origin": "cited, not measured here", "tested_on": "tumors", "details": "after administering the substance"}
{"smiles": "NCC(=O)CCC(=O)O", "note": "[delta-aminolevulinic acid]", "values": [{"measurement": "uptake of porphyrins in tumors compared to normal tissues", "result": "two-fold"}]}
